Measured values as given in ChEMBL document CHEMBL4507279, “Data for DCP probe BI-9627” (2021).

Experiments:
[1] = biological target: Serine/threonine-protein kinase 4 (Homo sapiens) (UniProt Q13043); details: Compound concentration 1000.0 nM
[2] = biological target: Phosphatidylinositol 4-phosphate 5-kinase type-1 gamma (Homo sapiens) (UniProt O60331); details: Compound concentration 1000.0 nM
[3] = biological target: Histamine H4 receptor (Homo sapiens) (UniProt Q9H3N8); details: Compound concentration 10.0 uM
[4] = biological target: Receptor tyrosine-protein kinase erbB-3 (Homo sapiens) (UniProt P21860); details: Compound concentration 1000.0 nM
[5] = biological target: Epidermal growth factor receptor (Homo sapiens) (UniProt P00533); details: Compound concentration 1000.0 nM
[6] = biological target: D(1B) dopamine receptor (Homo sapiens) (UniProt P21918); details: Compound concentration 10.0 uM
[7] = biological target: Proto-oncogene tyrosine-protein kinase ROS (Homo sapiens) (UniProt P08922); details: Compound concentration 1000.0 nM
Sequence of Proto-oncogene tyrosine-protein kinase ROS (Homo sapiens) (P08922 whole entry): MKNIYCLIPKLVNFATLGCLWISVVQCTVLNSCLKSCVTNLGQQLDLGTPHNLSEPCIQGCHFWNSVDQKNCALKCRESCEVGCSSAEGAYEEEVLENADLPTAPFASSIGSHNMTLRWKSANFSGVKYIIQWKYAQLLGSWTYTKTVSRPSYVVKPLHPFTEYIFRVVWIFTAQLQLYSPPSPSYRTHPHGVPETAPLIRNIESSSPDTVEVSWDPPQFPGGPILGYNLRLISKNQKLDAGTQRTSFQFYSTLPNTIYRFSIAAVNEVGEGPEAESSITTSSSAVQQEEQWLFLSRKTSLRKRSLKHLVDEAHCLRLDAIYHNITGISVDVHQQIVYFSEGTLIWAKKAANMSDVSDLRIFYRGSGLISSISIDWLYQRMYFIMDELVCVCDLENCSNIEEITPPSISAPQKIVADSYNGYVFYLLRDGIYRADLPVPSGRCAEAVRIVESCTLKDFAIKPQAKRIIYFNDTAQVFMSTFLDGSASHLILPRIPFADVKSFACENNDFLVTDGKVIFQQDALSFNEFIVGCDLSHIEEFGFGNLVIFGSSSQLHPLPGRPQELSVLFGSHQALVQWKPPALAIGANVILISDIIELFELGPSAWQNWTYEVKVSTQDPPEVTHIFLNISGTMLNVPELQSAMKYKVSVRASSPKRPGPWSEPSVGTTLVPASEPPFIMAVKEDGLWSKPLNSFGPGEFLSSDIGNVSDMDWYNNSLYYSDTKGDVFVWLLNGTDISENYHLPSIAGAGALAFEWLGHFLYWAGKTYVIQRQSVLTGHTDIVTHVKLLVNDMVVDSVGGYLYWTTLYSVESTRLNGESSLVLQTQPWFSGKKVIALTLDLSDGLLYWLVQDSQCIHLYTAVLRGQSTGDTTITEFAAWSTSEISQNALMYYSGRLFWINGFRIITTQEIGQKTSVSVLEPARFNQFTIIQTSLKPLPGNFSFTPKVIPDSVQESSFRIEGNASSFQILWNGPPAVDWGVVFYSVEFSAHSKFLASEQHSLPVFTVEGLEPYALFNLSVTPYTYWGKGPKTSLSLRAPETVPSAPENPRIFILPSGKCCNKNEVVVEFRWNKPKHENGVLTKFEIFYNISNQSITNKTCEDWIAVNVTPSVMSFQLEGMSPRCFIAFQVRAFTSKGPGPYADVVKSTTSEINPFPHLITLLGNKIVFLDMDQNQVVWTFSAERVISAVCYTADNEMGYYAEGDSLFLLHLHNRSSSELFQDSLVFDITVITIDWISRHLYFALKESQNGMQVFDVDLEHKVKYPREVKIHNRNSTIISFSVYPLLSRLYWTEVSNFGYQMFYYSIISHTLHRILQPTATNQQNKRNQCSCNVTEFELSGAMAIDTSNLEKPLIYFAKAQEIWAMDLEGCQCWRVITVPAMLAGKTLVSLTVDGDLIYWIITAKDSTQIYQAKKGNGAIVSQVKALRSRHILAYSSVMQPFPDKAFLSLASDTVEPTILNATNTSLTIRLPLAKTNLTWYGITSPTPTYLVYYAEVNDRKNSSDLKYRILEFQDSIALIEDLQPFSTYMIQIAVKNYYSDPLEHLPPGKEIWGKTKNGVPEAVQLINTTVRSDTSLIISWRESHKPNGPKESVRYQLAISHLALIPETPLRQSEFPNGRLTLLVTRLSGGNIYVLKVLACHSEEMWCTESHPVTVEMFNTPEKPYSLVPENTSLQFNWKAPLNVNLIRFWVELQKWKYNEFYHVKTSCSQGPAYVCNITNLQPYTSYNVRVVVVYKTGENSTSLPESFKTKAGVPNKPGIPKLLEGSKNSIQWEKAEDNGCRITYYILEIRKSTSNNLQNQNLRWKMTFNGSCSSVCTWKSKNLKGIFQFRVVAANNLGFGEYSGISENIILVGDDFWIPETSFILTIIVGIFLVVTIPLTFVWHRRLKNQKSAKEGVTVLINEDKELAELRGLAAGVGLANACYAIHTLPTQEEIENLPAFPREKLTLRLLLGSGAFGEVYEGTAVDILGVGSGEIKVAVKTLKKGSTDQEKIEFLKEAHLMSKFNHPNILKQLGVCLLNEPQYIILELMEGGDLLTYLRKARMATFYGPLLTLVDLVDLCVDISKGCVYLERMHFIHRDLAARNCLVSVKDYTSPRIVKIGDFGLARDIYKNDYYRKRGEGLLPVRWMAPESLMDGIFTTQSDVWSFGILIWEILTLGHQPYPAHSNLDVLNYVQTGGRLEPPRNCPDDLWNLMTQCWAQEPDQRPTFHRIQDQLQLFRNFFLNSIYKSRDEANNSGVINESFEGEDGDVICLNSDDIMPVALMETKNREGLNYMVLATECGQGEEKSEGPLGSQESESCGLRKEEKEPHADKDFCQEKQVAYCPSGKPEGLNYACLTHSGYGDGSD

[8] = biological target: Ephrin type-B receptor 2 (Homo sapiens) (UniProt P29323); details: Compound concentration 1000.0 nM
[9] = biological target: Mitogen-activated protein kinase kinase kinase 6 (Homo sapiens) (UniProt O95382); details: Compound concentration 1000.0 nM
[10] = biological target: Serine/threonine-protein kinase Nek11 (Homo sapiens) (UniProt Q8NG66); details: Compound concentration 1000.0 nM
[11] = biological target: T1, Muscarinic acetylcholine receptor M1 (Homo sapiens) (UniProt P11229); details: Compound concentration 10.0 uM
T1 sequence (whole entry): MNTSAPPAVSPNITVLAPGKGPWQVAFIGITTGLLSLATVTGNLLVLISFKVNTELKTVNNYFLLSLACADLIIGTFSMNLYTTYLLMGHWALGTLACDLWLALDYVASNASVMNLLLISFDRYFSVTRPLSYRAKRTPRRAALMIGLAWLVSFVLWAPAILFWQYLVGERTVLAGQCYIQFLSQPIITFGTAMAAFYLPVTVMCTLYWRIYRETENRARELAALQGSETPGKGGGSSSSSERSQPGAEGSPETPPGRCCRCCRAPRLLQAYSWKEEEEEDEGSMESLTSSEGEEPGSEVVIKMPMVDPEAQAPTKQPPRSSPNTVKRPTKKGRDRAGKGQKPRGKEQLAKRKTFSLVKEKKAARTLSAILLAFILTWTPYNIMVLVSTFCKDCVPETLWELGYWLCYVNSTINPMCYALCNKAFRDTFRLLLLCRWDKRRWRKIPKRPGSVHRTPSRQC

[12] = biological target: Phosphatidylinositol 4,5-bisphosphate 3-kinase catalytic subunit delta isoform (Homo sapiens) (UniProt O00329); details: Compound concentration 1000.0 nM
[13] = biological target: 5-hydroxytryptamine receptor 2C (Homo sapiens) (UniProt P28335); details: Compound concentration 10.0 uM
[14] = system: Receptor-type tyrosine-protein kinase FLT3 (Homo sapiens), P36888 [D835V]; details: Compound concentration 1000.0 nM
[15] = biological target: Casein kinase II subunit alpha (Homo sapiens) (UniProt P68400); details: Compound concentration 1000.0 nM
Sequence of Casein kinase II subunit alpha (Homo sapiens) (P68400 whole entry, looked up): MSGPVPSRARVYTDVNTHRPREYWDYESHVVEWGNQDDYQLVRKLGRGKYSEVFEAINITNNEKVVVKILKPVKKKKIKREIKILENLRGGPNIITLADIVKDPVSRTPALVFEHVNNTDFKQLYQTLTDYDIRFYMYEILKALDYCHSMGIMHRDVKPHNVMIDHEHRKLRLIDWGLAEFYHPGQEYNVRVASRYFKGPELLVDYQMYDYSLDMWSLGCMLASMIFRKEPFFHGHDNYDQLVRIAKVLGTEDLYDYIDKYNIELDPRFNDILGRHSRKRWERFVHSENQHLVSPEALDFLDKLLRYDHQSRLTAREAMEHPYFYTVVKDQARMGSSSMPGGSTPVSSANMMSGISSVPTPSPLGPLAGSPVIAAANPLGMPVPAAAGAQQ

[16] = biological target: 3-phosphoinositide-dependent protein kinase 1 (Homo sapiens) (UniProt O15530); details: Compound concentration 1000.0 nM
[17] = biological target: Serine/threonine-protein kinase TAO1 (Homo sapiens) (UniProt Q7L7X3); details: Compound concentration 1000.0 nM
[18] = biological target: Mitogen-activated protein kinase 6 (Homo sapiens) (UniProt Q16659); details: Compound concentration 1000.0 nM
[19] = system: Tyrosine-protein kinase ABL1 (Homo sapiens), P00519 [E255K]; details: Compound concentration 1000.0 nM
[20] = biological target: Phosphatidylinositol 4,5-bisphosphate 3-kinase catalytic subunit gamma isoform (Homo sapiens) (UniProt P48736); details: Compound concentration 1000.0 nM
[21] = biological target: Tyrosine-protein kinase Srms (Homo sapiens) (UniProt Q9H3Y6); details: Compound concentration 1000.0 nM
Sequence of Tyrosine-protein kinase Srms (Homo sapiens) (Q9H3Y6 whole entry): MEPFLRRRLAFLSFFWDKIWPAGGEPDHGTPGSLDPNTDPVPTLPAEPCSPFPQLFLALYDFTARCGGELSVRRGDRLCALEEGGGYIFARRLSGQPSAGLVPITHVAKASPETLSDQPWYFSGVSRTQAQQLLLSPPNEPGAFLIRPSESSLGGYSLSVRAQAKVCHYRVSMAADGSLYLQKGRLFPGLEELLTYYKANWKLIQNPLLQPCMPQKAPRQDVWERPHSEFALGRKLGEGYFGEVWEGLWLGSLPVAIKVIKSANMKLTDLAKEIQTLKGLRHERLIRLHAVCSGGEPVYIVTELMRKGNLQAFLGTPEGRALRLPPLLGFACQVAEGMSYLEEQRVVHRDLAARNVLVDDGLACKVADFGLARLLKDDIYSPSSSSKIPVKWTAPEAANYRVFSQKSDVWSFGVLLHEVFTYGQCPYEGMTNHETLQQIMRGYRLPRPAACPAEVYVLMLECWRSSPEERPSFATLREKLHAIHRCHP

[22] = biological target: Protein kinase C delta type (Homo sapiens) (UniProt Q05655); details: Compound concentration 1000.0 nM
[23] = biological target: Phosphatidylinositol 4,5-bisphosphate 3-kinase catalytic subunit alpha isoform (Homo sapiens) (UniProt P42336); details: Compound concentration 1000.0 nM
[24] = biological target: Insulin receptor-related protein (Homo sapiens) (UniProt P14616); details: Compound concentration 1000.0 nM
Sequence of Insulin receptor-related protein (Homo sapiens) (P14616 27-742 limits assumed): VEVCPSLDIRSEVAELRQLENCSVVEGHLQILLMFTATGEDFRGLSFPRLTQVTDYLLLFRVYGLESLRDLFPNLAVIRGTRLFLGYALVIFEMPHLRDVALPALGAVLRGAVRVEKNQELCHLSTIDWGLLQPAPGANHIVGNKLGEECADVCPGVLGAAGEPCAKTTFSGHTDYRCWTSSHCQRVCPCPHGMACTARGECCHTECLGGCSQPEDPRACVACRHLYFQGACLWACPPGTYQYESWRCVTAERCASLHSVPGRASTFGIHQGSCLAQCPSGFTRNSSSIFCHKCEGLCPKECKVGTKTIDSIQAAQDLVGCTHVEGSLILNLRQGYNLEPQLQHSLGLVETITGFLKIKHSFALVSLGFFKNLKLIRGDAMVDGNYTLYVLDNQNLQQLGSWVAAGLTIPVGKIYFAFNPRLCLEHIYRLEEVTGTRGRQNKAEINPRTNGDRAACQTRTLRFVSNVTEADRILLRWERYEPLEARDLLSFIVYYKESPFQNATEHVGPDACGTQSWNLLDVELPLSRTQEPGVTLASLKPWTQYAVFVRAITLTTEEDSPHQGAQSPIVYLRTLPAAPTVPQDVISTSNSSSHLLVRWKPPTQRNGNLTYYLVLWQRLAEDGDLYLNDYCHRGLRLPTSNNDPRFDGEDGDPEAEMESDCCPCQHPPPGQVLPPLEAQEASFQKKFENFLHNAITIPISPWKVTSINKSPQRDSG
Sequence of Insulin receptor-related protein (Homo sapiens) (P14616 747-1297 limits assumed): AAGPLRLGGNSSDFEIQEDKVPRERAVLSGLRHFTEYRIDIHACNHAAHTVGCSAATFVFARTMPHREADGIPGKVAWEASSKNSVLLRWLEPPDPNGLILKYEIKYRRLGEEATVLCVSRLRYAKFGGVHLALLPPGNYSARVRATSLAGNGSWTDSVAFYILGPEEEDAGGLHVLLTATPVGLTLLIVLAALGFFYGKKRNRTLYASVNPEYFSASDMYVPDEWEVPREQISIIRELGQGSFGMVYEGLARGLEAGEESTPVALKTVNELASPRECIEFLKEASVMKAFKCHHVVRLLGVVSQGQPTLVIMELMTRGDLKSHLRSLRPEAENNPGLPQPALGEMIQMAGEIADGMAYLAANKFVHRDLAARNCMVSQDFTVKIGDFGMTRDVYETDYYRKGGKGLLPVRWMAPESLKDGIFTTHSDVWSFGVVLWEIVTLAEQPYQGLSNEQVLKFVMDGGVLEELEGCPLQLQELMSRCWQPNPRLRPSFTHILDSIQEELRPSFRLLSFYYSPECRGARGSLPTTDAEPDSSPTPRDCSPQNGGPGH

[25] = biological target: Casein kinase I isoform gamma-1 (Homo sapiens) (UniProt Q9HCP0); details: Compound concentration 1000.0 nM
[26] = biological target: Receptor-type tyrosine-protein kinase FLT3 (Homo sapiens) (UniProt P36888); details: Compound concentration 1000.0 nM
[27] = biological target: Aurora kinase C (Homo sapiens) (UniProt Q9UQB9); details: Compound concentration 1000.0 nM
[28] = biological target: G protein-coupled receptor kinase 4 (Homo sapiens) (UniProt P32298); details: Compound concentration 1000.0 nM
[29] = system: Hepatocyte growth factor receptor (Homo sapiens), P08581 [M1250T]; details: Compound concentration 1000.0 nM
[30] = biological target: Cyclin-dependent kinase 15 (Homo sapiens) (UniProt Q96Q40); details: Compound concentration 1000.0 nM
[31] = biological target: Cyclin-dependent kinase-like 2 (Homo sapiens) (UniProt Q92772); details: Compound concentration 1000.0 nM
Sequence of Cyclin-dependent kinase-like 2 (Homo sapiens) (Q92772 whole entry): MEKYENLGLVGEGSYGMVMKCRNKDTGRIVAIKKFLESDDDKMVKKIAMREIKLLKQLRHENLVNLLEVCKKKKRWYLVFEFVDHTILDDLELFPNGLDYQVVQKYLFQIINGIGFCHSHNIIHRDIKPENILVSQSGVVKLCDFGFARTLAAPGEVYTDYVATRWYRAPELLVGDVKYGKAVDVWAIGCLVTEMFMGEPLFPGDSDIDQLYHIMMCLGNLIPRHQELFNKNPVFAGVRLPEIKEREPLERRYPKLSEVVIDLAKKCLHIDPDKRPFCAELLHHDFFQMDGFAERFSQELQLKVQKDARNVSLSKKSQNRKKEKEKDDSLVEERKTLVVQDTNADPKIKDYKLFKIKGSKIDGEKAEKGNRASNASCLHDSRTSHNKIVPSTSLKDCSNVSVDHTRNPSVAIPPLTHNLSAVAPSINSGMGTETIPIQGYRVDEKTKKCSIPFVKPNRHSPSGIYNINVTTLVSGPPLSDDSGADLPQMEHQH

[32] = biological target: T2, 5-hydroxytryptamine receptor 3A (Homo sapiens) (UniProt P46098); details: Compound concentration 10.0 uM
T2 sequence (whole entry): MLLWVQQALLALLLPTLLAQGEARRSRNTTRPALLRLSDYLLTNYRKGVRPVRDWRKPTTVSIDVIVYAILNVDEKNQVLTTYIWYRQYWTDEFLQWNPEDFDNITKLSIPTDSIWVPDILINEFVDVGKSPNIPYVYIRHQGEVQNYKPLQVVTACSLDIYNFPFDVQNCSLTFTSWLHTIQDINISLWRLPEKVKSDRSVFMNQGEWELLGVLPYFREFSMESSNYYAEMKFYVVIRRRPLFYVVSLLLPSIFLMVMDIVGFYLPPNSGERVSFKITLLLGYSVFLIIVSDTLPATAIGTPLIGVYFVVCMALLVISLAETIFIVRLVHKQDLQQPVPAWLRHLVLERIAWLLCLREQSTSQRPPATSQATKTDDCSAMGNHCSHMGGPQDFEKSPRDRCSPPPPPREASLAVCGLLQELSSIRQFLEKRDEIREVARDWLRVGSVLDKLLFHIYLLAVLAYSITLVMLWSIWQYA

[33] = biological target: Serine/threonine-protein kinase WNK3 (Homo sapiens) (UniProt Q9BYP7); details: Compound concentration 1000.0 nM

`CC(=O)N1CCC(c2ccc(C(=O)NC3=NCCN3)cc2C(F)(F)F)CC1` [BI 0054] showed a residual activity [1] of 100%, a residual activity [2] of 99% and an inhibition [3] of 9.81%. The residual activity [4] was 94%, the residual activity [5] was 100% and the inhibition [6] was -9.82%. For the same compound, the residual activity [7] was 99%, the residual activity [8] was 82% and the residual activity [9] was 93%. The residual activity [10] was 100%, the inhibition [11] was -7.86% and the residual activity [12] was 100%. It also gave an inhibition [13] of -2.86%, a residual activity [14] of 97% and a residual activity [15] of 86%. The residual activity [16] was 94%, the residual activity [17] was 100% and the residual activity [18] was 100%. For the same compound, the residual activity [19] was 82%, the residual activity [20] was 100% and the residual activity [21] was 89%. For the same compound, the residual activity [22] was 100%, the residual activity [23] was 100% and the residual activity [24] was 81%. The residual activity [25] was 95%, the residual activity [26] was 100% and the residual activity [27] was 100%. For the same compound, the residual activity [28] was 100%, the residual activity [29] was 84% and the residual activity [30] was 100%. The residual activity [31] was 100%, the inhibition [32] was -4.49% and the residual activity [33] was 86%.
Compound `CC(=O)N1CCC(c2ccc(C(=O)NC(=N)N)cc2C(F)(F)F)CC1` [BI 9627] has a residual activity [1] of 98%, a residual activity [2] of 100% and an inhibition [3] of 7.11%. It also gave a residual activity [4] of 98%, a residual activity [5] of 100% and an inhibition [6] of -8.21%. The residual activity [7] was 100%, the residual activity [8] was 100% and the residual activity [9] was 86%. The residual activity [10] was 100%, the inhibition [11] was 12.4% and the residual activity [12] was 34%. The inhibition [13] was 2.59%, the residual activity [14] was 92% and the residual activity [15] was 95%. For the same compound, the residual activity [16] was 100%, the residual activity [17] was 100% and the residual activity [18] was 100%. The residual activity [19] was 100%, the residual activity [20] was 100% and the residual activity [21] was 80%. It also gave a residual activity [22] of 100%, a residual activity [23] of 100% and a residual activity [24] of 100%. For the same compound, the residual activity [25] was 100%, the residual activity [26] was 100% and the residual activity [27] was 100%. It also gave a residual activity [28] of 100%, a residual activity [29] of 100% and a residual activity [30] of 100%. The residual activity [31] was 100%, the inhibition [32] was -6.68% and the residual activity [33] was 84%.
